Starred links: 1 amine or outer side, 2 acyl side, 3 side chain; linkers in the order of their positions; H or OH if unused. Positions of bridges follow the written chain, without caps; N, C: chain ends. Non-standard residues stand in square brackets, D forms with d. Residues, ends and D or L forms follow the SMILES beside them. X1 = O=C([C@]1(CC=[*:3])CCCN1[*:1])[*:2]; αAllylPro = C=CC[C@@]1(C(=O)O)CCCN1; S5 = C=CCCC[C@](C)(N)C(=O)O
What was measured:
in vitro = assay: in vitro; design: dose or concentration left out as unconfirmed; conditions: PAMPA
Method: (§1) The synthesized peptides were first analyzed with a PAMPA assay. […] The PAMPA plate system is composed of two compartments, donor and acceptor, which are separated by a phospholipid-infused membrane. The amount of compound transferred from the acceptor well into the donor well over a period of incubation time is used to determine the passive permeability of a compound.
(§2) The two plates are separated by a membrane infused with phospholipids. […] The amount of compound transferred from one well to the other is usually quantified by reverse-phase HPLC-mass spectrometry.
(§3) Briefly, all PAMPA assays were performed using the commercially available PAMPA plate system from Corning, which uses a proprietary membrane composed of structured phospholipids. […] To prevent nonspecific peptide loss to the plates, the acceptor wells of the Corning PAMPA plates were blocked overnight with 5% nonfat milk with 0.1% Triton X-100 in Dulbecco's phosphate buffer saline (DPBS) at pH=7.4, followed by extensive washing prior to assays. The donor wells and membrane itself were not exposed to the milk/Triton solution. […] The PAMPA experiments described herein were performed using plates from Corning Lot #9112010, Lot #9112011 and Lot #7317005 (Corning Inc., Corning, New York, USA).
(§4) To set up PAMPA assays, the PAMPA plate system was equilibrated at room temperature for at least an hour before setting up the assay. The acceptor plate preincubated with milk blocking solution was washed with water, followed by DPBS buffer. 300 μL of 5% DMSO in DPBS at pH=7.4 was added to the pre-blocked acceptor plate, and 200 μL of 10M compounds made with 5% DMSO in DPBS at pH=7.4 was added to the donor plate. The donor plate with a lid was then carefully inserted into the acceptor plate with no bubbles formed at the interface of donor and acceptor plates. The PAMPA assay plate was covered with aluminum foil and placed in a 37° C. incubator for 5 hours. 10 M input solution of all compounds was diluted 20-fold to a final acetonitrile concentration of 50% before analyzing by reverse-phase HPLC and Q-Exactive plus mass spectrometer. At the end of 5 hours, PAMPA donor and acceptor plates were separated and diluted 20-fold and 2-fold respectively to a final acetonitrile concentration of 50%. The diluted solutions of PAMPA donor and acceptor plates were analyzed by reverse-phase HPLC and Q-Exactive plus mass spectrometer.
(§5) Pe measures the passive permeability of each compound tested in the PAMPA assay, whereas % retention measures the amount of compound retained in solution at the end of the assay compared to the input sample.

[1] = design: PAMPA Pe: dose or concentration left out as unconfirmed; conditions: for % Retention: PAMPA; for PAMPA Pe: 5 h, pH 7.4
Method: as §1, §2, §3, §4, §5

[2] = CHI Log D measurement (chromatographic hydrophobicity index); conditions: pH 7.4
Method: Finally, to measure hydrophobicity, a CHI Log D measurement assay was employed. […] The retention time measurements were performed using reverse-phase HPLC and Q-Exactive mass spectrometer with Phenomenex Gemini C-18 column (3 uM, 50×3 mm). The reverse-phase chromatography was performed using a gradient of 10 mM ammonium acetate at pH=7.4 and acetonitrile solvents. Using the identical solvent setup, gradient, and flowrate, ProLock stapled peptides were injected onto the column to determine the tR of peptides. Using the calibration curve shown in FIG. 7, tR is converted into CHI. CHI was converted into CHI Log D using the following equation.
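For % Retention in this document: Phospholipid-membrane PAMPA, donor and acceptor in DPBS pH 7.4 with 5% DMSO, 37 °C for 5 h, compound in each well quantified by reverse-phase HPLC-MS.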
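For PAMPA Pe (text) in this document: Phospholipid-membrane PAMPA, donor and acceptor in DPBS pH 7.4 with 5% DMSO, 37 °C for 5 h, compound in each well quantified by reverse-phase HPLC-MS.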
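For PAMPA Pe in this document: Phospholipid-membrane PAMPA, donor and acceptor in DPBS pH 7.4 with 5% DMSO, 37 °C for 5 h, compound in each well quantified by reverse-phase HPLC-MS.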
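For Papp in this document: Phospholipid-membrane PAMPA, donor and acceptor in DPBS pH 7.4 with 5% DMSO, 37 °C for 5 h, compound in each well quantified by reverse-phase HPLC-MS.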

Compound	Papp at 5 h (in vitro; pH 7.4, PAMPA Pe) [×10⁻⁶ cm/s]	% Retention [1] [%]	chromatographic logD [2]	chromatographic logD ([2]; reverse-phase HPLC, Phenomenex Gemini C-18 column)	logD [2]	PAMPA Pe (text) [1] [×10⁻⁶ cm/s]	PAMPA Pe [1]	Papp at 5 h (in vitro; pH 7.4, average effective permeability (Pe) of control on accepted PAMPA plates) [×10⁻⁶ cm/s]
CC(=O)N1CCC[C@]12CC=CCCC[C@@](C)(C(=O)N[C@@H](Cc1ccc(O)cc1)C(=O)N[C@@H](CC(C)C)C(=O)N[C@@H](CC(C)C)C(=O)N[C@@H](CC(=O)O)C(N)=O)NC(=O)[C@H](CC(C)C)NC(=O)[C@H](CC(C)C)NC2=O (single isomer, unassigned) [PLL4-10 variant 3, Ac-PL3-Leu-Leu-S5-Tyr-Leu-Leu-Asp-NH2]	0.3 ± 0.1	106 ± 2	2.2	–	–	–	–	–
CNC(=O)[C@H](CC(=O)O)NC(=O)[C@H](CC(C)C)NC(=O)[C@H](CC(C)C)NC(=O)[C@H](Cc1ccc(O)cc1)NC(=O)[C@]1(C)CCCC=CC[C@]2(CCCN2)C(=O)N[C@@H](CC(C)C)C(=O)N[C@@H](CC(C)C)C(=O)N1 (single isomer, unassigned) [PLL4-10 variant 1, H-PL3-Leu-Leu-S5-Tyr-Leu-Leu-Asp-NHMe]	0.3 ± 0.1	66 ± 2	2.2	–	–	–	–	–
C=CCCC[C@](C)(NC(=O)[C@H](CC(C)C)NC(=O)[C@H](CCCCN)NC(=O)[C@]1(CC=C)CCCN1C(C)=O)C(=O)N[C@@H](CC(N)=O)C(=O)N[C@@H](CC(C)C)C(=O)N[C@@H](CC(C)C)C(=O)N[C@H](C(=O)N[C@@H](Cc1ccc(O)cc1)C(=O)NC)[C@@H](C)O [PLL4-5 variant 5, Ac-PL3-Lys-Leu-S5-Asn-Leu-Leu-Thr-Tyr-NHMe] (Ac-[αAllylPro]KL[S5]NLLTY-NHMe)	≤ 0.1	73 ± 4	2.3	–	–	–	–	–
CNC(=O)[C@H](Cc1ccc(O)cc1)NC(=O)[C@H](CCC(N)=O)NC(=O)[C@H](CC(C)C)NC(=O)[C@H](CC(C)C)NC(=O)[C@H](Cc1ccc(O)cc1)NC(=O)[C@]1(C)CCCC=CC[C@]2(CCCN2C(C)=O)C(=O)N[C@@H](CC(C)C)C(=O)N[C@@H](CC(C)C)C(=O)N1 [PLL5-3, Ac-PL3-Leu-Leu-S5-Tyr-Leu-Leu-Gln-Tyr-NHMe] (Ac-[X1]LL[S5]YLLQY-NHMe; staple 1-4)	≤ 0.1	83 ± 1	–	3.5	–	–	–	–
CNC(=O)[C@H](CC(=O)O)NC(=O)[C@H](CC(=O)O)NC(=O)[C@H](CC(C)C)NC(=O)[C@H](CC(C)C)NC(=O)[C@H](Cc1ccc(O)cc1)NC(=O)[C@]1(C)CCCC=CC[C@]2(CCCN2C(C)=O)C(=O)O[C@@H](CC(C)C)C(=O)N[C@@H](CC(C)C)C(=O)N1 (single isomer, unassigned) [PLL5-2 variant 2, Ac-PL3-Lec-Leu-S5-Tyr-Leu-Leu-Asp-Asp-NHMe]	≤ 0.1	47 ± 6	–	–	1.9	–	–	–
C=CCCC[C@](C)(NC(=O)[C@H](CC(C)C)NC(=O)[C@H](CC(C)C)NC(=O)[C@]1(CC=C)CCCN1C(C)=O)C(=O)N[C@@H](Cc1ccc(O)cc1)C(=O)N[C@@H](CC(C)C)C(=O)N[C@@H](CC(C)C)C(=O)N[C@@H](CC(=O)O)C(=O)NC [PLL4-10 variant 5, Ac-PL3-Leu-Leu-S5-Tyr-Leu-Leu-Asp-NHMe] (Ac-[αAllylPro]LL[S5]YLLD-NHMe)	0.2 ± 0.1	70 ± 2	2.8	–	–	–	–	–
CCCC[C@H](NC(=O)[C@H](CC(C)C)NC(=O)[C@]1(C)CCCC=CC[C@]2(CCCN2C(C)=O)C(=O)N[C@@H](C)C(=O)N[C@@H](CC(C)C)C(=O)N1)C(=O)N[C@@H](CC(C)C)C(=O)N[C@@H](C)C(=O)N[C@@H](Cc1ccc(O)cc1)C(=O)NC (single isomer, unassigned) [PLL4-6, Ac-PL3-Ala-Leu-S5-Leu-Nle-Leu-Ala-Tyr-NHMe]	≤ 0.1	48 ± 3	4	–	–	–	–	–
CC(=O)N1CCC[C@]12CC=CCCC[C@@](C)(C(=O)N[C@@H](Cc1ccc(O)cc1)C(=O)N[C@@H](CC(C)C)C(=O)N[C@@H](CC(C)C)C(=O)N[C@@H](CCC(N)=O)C(=O)N[C@@H](CC(=O)O)C(N)=O)NC(=O)[C@H](CC(C)C)NC(=O)[C@H](CC1CC1)NC2=O (single isomer, unassigned) [PLL7-7 variant 3, Ac-PL3-Cpa-Leu-S5-Tyr-Leu-Leu-Gln-Asp-NH2]	0.5 ± 0.1	75 ± 1	1.8	–	–	–	–	–
CNC(=O)[C@H](CC(=O)O)NC(=O)[C@H](CC(C)C)NC(=O)[C@H](CC(C)C)NC(=O)[C@H](Cc1ccc(O)cc1)NC(=O)[C@]1(C)CCCC=CCCC[C@](C)(NC(C)=O)C(=O)N[C@@H](C)C(=O)N[C@@H](CC(C)C)C(=O)N[C@@H](CC(C)C)C(=O)N1 [PLL4-10 variant 4, Ac-S5-Ala-Leu-Leu-S5-Tyr-Leu-Leu-Asp-NHMe] (Ac-[S5]ALL[S5]YLLD-NHMe; staple 1-5)	≤ 0.1	74 ± 6	2.9	–	–	–	–	–
CCCC[C@@H]1NC(=O)[C@H](CC(C)C)NC(=O)[C@]2(CC=CCCC[C@@](C)(C(=O)N[C@@H](CC(C)C)C(=O)N[C@@H](CC(C)C)C(=O)N[C@@H](Cc3c[nH]cn3)C(=O)N[C@@H](Cc3ccc(O)cc3)C(=O)NC)NC1=O)CCCN2C(C)=O (single isomer, unassigned) [PLL4-9, Ac-PL3-Leu-Nle-S5-Leu-Leu-His-Tyr-NHMe]	≤ 0.1	43 ± 3	3.3	–	–	–	–	–
CNC(=O)[C@H](Cc1ccc(O)cc1)NC(=O)[C@@H](NC(=O)[C@H](CC(C)C)NC(=O)[C@H](CC(C)C)NC(=O)[C@H](CC(N)=O)NC(=O)[C@]1(C)CCCC=CC[C@]2(CCCN2)C(=O)N[C@@H](CCCCN)C(=O)N[C@@H](CC(C)C)C(=O)N1)[C@@H](C)O (single isomer, unassigned) [PLL4-5 variant 1, H-PL3-Lys-Leu-S5-Asn-Leu-Leu-Thr-Tyr-NHMe]	≤ 0.1	52 ± 8	1.5	–	–	–	–	–
C=CCCC[C@](C)(NC(=O)[C@H](CC(C)C)NC(=O)[C@H](CC(C)C)NC(=O)[C@]1(CC=C)CCCN1C(C)=O)C(=O)N[C@@H](Cc1ccc(O)cc1)C(=O)N[C@@H](CC(C)C)C(=O)N[C@@H](CC(C)C)C(=O)N[C@@H](CC(=O)O)C(=O)N[C@@H](CC(=O)O)C(=O)NC [PLL5-2 variant 5, Ac-PL3-Leu-Leu-S5-Tyr-Leu-Leu-Asp-Asp-NHMe] (Ac-[αAllylPro]LL[S5]YLLDD-NHMe)	1.7 ± 0.4	90 ± 3	1.8	–	–	1.7	–	–
CNC(=O)[C@H](CC(=O)O)NC(=O)[C@H](CCC(N)=O)NC(=O)[C@H](CC(C)C)NC(=O)[C@H](CC(C)C)NC(=O)[C@H](Cc1ccc(O)cc1)NC(=O)[C@]1(C)CCCC=CC[C@]2(CCCN2)C(=O)N[C@@H](CC2CC2)C(=O)N[C@@H](CC(C)C)C(=O)N1 (single isomer, unassigned) [PLL7-7 variant 1, H-PL3-Cpa-Leu-S5-Tyr-Leu-Leu-Gln-Asp-NHMe]	0.4 ± 0.1	84 ± 2	1.8	–	–	–	–	–
Ac-PL3-Lec-Leu-S5-Tyr-Leu-Leu-Asp-NHMe [PLL4-10 variant 2]	–	92 ± 10	–	–	–	–	≤0.1 (×10^−6) cm/sec	–
CC(=O)CC(c1ccccc1)c1c(O)c2ccccc2oc1=O (stereo not drawn) [Warfarin, reference compound]	8.6 ± 0.3	–	–	–	–	–	8.6 ± 0.3 (x10^−6) cm/sec	7 to 11

From patent US20230357320A1, “HELICAL STAPLED PEPTIDES AND USES THEREOF” (FOG PHARMACEUTICALS, INC., priority 2020, published 2023)
